Results on 1 molecule are retold here after article PMC7253457, “Nitrite modulates aminoglycoside tolerance by inhibiting cytochrome heme-copper oxidase in bacteria” (Communications Biology, 2020).

Test [1] addresses T1, S. oneidensis cbb3 (heme-copper oxidase cbb3) (Shewanella oneidensis, UniProt Q8EEL5).
T1 construct: gene ccoN
Conditions: read-out: IC50(NO2^-); 5 mM NADH as electron donor; ~70 μM O2; membranes of delta-cyd strain. From the text: oxygen consumption of membranes, O2 electrode on S. oneidensis cbb3 (heme-copper oxidase cbb3)

Test [2] deals with T2, bd (bd-type quinol oxidase) (Shewanella oneidensis, UniProt Q8EC58).
T2 construct: gene cydA
T2 sequence (Q8EC58 1-518): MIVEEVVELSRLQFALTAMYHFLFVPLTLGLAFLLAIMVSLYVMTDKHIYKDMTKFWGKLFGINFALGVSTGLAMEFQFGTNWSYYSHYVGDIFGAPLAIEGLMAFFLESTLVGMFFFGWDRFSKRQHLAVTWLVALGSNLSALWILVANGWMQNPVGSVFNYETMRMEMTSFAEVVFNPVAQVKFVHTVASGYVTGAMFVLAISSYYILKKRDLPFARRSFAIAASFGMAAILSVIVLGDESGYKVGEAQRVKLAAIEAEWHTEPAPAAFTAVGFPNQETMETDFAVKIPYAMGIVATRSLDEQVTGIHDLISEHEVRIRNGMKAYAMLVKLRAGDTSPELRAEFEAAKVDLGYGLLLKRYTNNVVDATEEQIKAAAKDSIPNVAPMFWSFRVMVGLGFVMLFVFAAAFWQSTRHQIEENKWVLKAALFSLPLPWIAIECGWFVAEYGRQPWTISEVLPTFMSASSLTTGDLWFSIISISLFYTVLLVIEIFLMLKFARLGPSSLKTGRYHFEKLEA
T2 sequence (Q8EC59 1-379 partner): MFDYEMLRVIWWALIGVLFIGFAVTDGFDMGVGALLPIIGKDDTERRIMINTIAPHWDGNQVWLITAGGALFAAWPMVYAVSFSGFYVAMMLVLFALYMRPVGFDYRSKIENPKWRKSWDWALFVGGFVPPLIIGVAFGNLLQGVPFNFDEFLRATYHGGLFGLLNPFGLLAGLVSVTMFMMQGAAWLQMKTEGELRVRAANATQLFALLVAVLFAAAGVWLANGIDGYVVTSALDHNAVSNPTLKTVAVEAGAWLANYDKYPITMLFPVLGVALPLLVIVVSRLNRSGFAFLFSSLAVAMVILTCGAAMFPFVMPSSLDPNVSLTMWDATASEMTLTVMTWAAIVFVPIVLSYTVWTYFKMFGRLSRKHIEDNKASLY
Conditions: read-out: IC50(NO2^-); 5 mM NADH as electron donor; ~70 μM O2; membranes of delta-cco strain. From the text: oxygen consumption of membranes, O2 electrode on bd (bd-type quinol oxidase)

The target in test [3] is T3, S. aureus aa3 (cytochrome aa3 oxidase) (Staphylococcus aureus, UniProt Q7A699).
T3 construct: gene qoxB
T3 sequence (Q7A699 whole entry): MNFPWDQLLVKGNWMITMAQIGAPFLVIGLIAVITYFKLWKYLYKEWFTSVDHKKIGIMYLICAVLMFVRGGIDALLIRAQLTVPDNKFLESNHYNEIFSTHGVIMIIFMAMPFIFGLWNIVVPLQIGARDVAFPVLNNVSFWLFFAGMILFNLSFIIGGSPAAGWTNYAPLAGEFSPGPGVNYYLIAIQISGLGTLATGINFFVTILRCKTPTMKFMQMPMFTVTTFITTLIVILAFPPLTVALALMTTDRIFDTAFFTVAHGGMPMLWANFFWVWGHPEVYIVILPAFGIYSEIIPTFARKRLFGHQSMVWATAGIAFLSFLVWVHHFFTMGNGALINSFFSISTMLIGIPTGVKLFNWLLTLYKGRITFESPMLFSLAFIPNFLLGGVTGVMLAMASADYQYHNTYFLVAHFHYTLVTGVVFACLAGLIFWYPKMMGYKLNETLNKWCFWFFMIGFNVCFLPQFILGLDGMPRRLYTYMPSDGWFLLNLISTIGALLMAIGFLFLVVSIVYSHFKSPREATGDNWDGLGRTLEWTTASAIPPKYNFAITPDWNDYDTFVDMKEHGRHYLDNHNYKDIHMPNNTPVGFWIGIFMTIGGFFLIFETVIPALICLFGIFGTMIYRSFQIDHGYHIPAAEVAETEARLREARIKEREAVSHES
T3 sequence (Q7A698 20-366 partner): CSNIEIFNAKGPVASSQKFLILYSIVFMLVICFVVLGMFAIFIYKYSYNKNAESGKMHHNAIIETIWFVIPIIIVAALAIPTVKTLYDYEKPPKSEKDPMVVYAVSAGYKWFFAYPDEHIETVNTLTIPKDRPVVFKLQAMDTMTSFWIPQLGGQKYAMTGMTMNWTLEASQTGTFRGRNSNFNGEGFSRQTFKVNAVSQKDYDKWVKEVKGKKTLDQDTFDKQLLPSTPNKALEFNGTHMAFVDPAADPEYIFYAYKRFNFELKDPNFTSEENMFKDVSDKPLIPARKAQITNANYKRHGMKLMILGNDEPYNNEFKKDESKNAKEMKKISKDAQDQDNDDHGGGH
T3 sequence (Q7A6A0 whole entry partner): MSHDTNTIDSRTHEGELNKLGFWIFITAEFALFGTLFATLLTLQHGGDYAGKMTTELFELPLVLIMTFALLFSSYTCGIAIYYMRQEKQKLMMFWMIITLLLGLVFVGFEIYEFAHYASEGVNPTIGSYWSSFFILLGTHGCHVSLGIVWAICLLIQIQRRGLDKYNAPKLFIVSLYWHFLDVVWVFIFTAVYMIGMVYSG
T3 sequence (Q7A6A1 whole entry partner): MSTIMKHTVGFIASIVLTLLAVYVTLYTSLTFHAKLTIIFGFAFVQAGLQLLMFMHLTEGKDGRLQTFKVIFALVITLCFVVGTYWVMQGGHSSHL
Put plainly: biochemical. The source says:
oxygen consumption of membranes, O2 electrode on S. aureus aa3 (cytochrome aa3 oxidase)

In test [4] the target is T4, E. coli bo3 (cytochrome bo3 oxidase) (Escherichia coli, UniProt P0ABI8).
T4 construct: gene cyoB
T4 sequence (P0ABI8 whole entry): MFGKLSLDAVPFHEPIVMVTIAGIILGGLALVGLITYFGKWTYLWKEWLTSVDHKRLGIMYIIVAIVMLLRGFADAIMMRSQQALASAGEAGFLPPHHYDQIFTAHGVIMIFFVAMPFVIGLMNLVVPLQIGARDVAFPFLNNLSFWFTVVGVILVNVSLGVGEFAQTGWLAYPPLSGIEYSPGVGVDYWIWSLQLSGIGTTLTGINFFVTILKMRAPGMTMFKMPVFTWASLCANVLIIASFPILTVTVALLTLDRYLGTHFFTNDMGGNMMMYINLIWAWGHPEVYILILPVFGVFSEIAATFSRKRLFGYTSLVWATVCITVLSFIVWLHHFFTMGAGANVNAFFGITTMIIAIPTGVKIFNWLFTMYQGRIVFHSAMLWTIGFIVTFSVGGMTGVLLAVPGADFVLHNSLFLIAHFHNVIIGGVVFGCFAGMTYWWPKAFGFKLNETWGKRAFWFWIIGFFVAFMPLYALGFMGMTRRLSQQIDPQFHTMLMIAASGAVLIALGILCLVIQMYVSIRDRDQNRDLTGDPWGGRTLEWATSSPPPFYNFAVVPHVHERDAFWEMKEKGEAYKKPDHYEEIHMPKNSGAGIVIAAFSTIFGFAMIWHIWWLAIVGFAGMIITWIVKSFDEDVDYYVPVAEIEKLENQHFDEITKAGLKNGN
T4 sequence (P0ABJ1 25-315 partner): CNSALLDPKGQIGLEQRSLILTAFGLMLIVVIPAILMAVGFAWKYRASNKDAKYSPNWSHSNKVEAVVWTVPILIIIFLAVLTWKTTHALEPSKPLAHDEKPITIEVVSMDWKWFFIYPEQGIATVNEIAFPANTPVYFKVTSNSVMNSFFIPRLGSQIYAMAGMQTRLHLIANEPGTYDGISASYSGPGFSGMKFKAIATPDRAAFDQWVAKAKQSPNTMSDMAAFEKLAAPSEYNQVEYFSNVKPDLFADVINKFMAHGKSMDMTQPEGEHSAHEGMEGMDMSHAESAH
T4 sequence (P0ABJ3 whole entry partner): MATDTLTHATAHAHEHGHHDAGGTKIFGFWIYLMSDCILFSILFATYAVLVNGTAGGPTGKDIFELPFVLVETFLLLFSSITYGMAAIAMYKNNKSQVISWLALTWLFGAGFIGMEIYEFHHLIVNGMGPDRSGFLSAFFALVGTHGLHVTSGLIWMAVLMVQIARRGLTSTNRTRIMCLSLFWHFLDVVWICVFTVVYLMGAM
T4 sequence (P0ABJ6 whole entry partner): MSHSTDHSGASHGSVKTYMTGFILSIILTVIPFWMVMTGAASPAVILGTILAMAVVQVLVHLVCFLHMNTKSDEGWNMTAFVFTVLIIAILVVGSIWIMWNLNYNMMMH
Put plainly: biochemical. From the text: oxygen consumption of membranes, O2 electrode on E. coli bo3 (cytochrome bo3 oxidase)

T1 sequence (Q8EEL5 1-478): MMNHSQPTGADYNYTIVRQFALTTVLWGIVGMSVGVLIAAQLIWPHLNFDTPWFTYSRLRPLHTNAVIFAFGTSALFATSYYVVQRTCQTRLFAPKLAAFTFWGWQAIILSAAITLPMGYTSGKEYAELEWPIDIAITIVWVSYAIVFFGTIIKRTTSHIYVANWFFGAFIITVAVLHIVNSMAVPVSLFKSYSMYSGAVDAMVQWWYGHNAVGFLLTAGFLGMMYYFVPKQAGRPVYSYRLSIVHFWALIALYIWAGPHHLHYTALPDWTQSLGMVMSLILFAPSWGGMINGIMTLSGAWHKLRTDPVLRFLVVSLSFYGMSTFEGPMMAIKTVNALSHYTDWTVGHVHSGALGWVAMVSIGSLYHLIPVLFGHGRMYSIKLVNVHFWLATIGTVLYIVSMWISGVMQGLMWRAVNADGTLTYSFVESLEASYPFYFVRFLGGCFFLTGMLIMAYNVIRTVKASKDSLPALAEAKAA
T1 sequence (Q8EEL6 1-208 partner): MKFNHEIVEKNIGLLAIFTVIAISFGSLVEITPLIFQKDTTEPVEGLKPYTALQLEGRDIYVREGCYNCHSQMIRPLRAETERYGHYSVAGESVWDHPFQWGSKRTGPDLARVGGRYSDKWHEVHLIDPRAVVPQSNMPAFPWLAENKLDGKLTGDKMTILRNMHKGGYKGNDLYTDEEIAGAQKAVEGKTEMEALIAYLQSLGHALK
T1 sequence (Q8EEL8 1-322 partner): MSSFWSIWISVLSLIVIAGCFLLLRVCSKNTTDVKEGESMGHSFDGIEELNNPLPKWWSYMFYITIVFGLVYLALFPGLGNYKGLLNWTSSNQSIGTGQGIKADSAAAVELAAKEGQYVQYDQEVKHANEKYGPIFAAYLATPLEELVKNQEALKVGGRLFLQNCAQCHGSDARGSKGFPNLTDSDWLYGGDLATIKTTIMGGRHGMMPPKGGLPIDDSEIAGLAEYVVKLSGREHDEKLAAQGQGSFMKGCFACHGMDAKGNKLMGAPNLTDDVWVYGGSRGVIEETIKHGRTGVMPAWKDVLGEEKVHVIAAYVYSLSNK
T1 sequence (Q8EEL7 1-58 partner): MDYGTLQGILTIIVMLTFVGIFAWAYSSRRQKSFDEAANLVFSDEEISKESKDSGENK

With `O=NO` [nitrite], the IC50 in test [1] came to 57 ± 6 µM; in test [2] it was 207 ± 18 µM; in test [3], 137 ± 15 µM; in test [4], 120 ± 13 µM.
